Measured values as given in patent US20110224245A1, “Treatment Of Neurological Disorders Using Huperzine” (President and Fellows of Harvard College, priority 2008, published 2011).

Assays:
patients = details: published clinical studies; mainly cholinergic (dizziness, nausea, gastrointestinal symptoms, sweating, depressed heart rate); cited from earlier work
rats = assay: Toxicity (TOX) / minimal motor impairment, rats, oral; type: in vivo
[1] = test system: Subcutaneous Metrazol (pentylenetetrazol; SCMET) seizures; assay: Subcutaneous Metrazol (SCMET / scPTZ) model, mice i.p.; type: in vivo; details: (MJ) animals displaying myoclonic jerks
Method: Huperzine A was evaluated in the Maximal Electroshock (MES) and Subcutaneous Metrazol (pentylenetetrazol; SCMET) models of generalized tonic-clonic and myoclonic seizures, respectively in mice and rats.
The Subcutaneous Metrazole (SCMET) model is also an art-recognized test for therapeutic agents for epilepsy, and in particular, is useful for investigating petite mal seizures. A Metrazole dose of 85 mg/kg was administered subcutaneously to induce seizures. Huperzine was then administered and the animals observed.
Huperzine A was either administered in a soluble form (SOL) or as a suspension (SUS). […] To produce the suspension, huperzine A was ground to a powder using a mortar and pestle, and the powder mixed with methyl cellulose. This mixture was then sonicated to produce a suspension that was subsequently administered to mice in the weight range of 19.0 to 25.5 g. The data are presented as the number of mice showing an effect (N) from the full number of mice (F) tested. […] At four hours post administration, all three mice were protected (i.e., 100% were protected).
Male, 18-25 g CF1 mice and 100-125 g Sprague-Dawley rats (Charles River Laboratories, Wilmington, Mass.) were used as the experimental animals. Animals were pretreated intraperitoneally (i.p.) with increasing doses of HupA and tested at various times after administration for protection against tonic extension (MES test), minimal clonic (s.c. PTZ test), limbic (6 Hz), or secondarily generalized (kindled rat) seizures. Seizure testing was carried out as follows. […] The ability of the test substance to prevent seizures induced by 6 Hz corneal stimulation (32 mA, 3 sec duration) was assessed at various times after i.p. administration of 1 mg/kg HupA For assessment of hippocampal kindling, HupA (1 mg/kg, i.p.) was administered. The ability of the compound to block the expression of hippocampal kindled seizures was evaluated using the rapid hippocampal kindling model (White et al., 2002). […]

6 Hz seizures = assay: 6 Hz anticonvulsant evaluation in mice, ICV administration; type: in vivo
Description: Huperzine delivered directly to the central nervous system (e.g., cerebral ventricles, intrathecal space), via direct injection and/or through an apparatus such as a pump or material containing Huperzine, bypasses the systemic effect by minimizing bioavailability of Huperzine in the rest of the body, and potently prevents and treats seizure, pain and/or other neurological conditions.
Results after direct administration to neural tissue using an art-recognized 6-HZ animal model are shown below.
Doses listed as pmol/5 microliter injection volume for ICV. TD50 at 0.5 hrs: 36.15 (9.35-121.74) 1.57+/−0.51.
Male, 18-25 g CF1 mice and 100-125 g Sprague-Dawley rats (Charles River Laboratories, Wilmington, Mass.) were used as the experimental animals. Animals were pretreated intraperitoneally (i.p.) with increasing doses of HupA and tested at various times after administration for protection against tonic extension (MES test), minimal clonic (s.c. PTZ test), limbic (6 Hz), or secondarily generalized (kindled rat) seizures. Seizure testing was carried out as follows. For the MES and 6 Hz tests, a drop of anesthetic/electrolyte solution (0.5% tetracaine hydrochloride in 0.9% saline) was applied to the eyes of each animal prior to placement of the corneal electrodes. The electrical stimulus in the MES test was 50 mA, 60 Hz, for mice and 150 mA, 60 Hz, for rats, delivered for 0.2 sec (White et al., 2002, In R. H. Levy et al., eds. Antiepileptic Drugs, 5th edition, p. 36-48, Philadelphia: Lippincott Williams & Wilkins). The ability of the test substance to prevent seizures induced by 6 Hz corneal stimulation (32 mA, 3 sec duration) was assessed at various times after i.p. administration of 1 mg/kg HupA For assessment of hippocampal kindling, HupA (1 mg/kg, i.p.) was administered. The ability of the compound to block the expression of hippocampal kindled seizures was evaluated using the rapid hippocampal kindling model (White et al., 2002). Animals not displaying secondarily generalize seizures were considered protected.

[2] = test system: formalin-induced paw-licking; assay: Formalin test (paw licking) in mice; type: in vivo
Method: The formalin test for antinociceptive activity is described in numerous publications, e.g., Hunskaar, S., O. B. Fasmer, and K. Hole, J. Neurosci. […] The formalin test is accepted as an art recognized model of persistent clinical pain.
Male Swiss Webster NIH mice (20-30 g; Harlan, San Diego, Calif.) were used in the experiments described herein. Food was withdrawn on the day of experiment. Mice were placed in Plexiglass jars for at least 1 hour to accommodate to the environment. Following the accommodation period, mice were weighed and given either a huperzine compound administered intraperitoneal (i.p.) or oral (p.o.), or the appropriate volume of vehicle (10% Tween-80). Fifteen minutes after the i.p. dosing, and 30 minutes after the p.o. dosing mice were injected with formalin (20 μL of 5% formaldehyde solution in saline) into the dorsal surface of the right hind paw. Mice were transferred to the Plexiglass jars and monitored for the amount of time spent licking or biting the injected paw. Periods of licking and biting were recorded in 5 minute intervals for 40 minutes after the formalin injection. All experiments were done in a blinded manner. The early phase (acute) of the formalin response is measured as licking/biting between 0-5 minutes, and the late phase (inflammatory) is measured from 10-40 minutes. Differences between vehicle and drug treated groups are analyzed by one-way analysis of variance (ANOVA). A P value<0.05 is considered significant.
Fifteen minutes after the i.p. dosing, mice were injected with formalin (20 μL of 5% formaldehyde solution in saline) into the dorsal surface of the right hind paw. Periods of licking and biting were recorded in 5 minute intervals for 40 minutes after the formalin injection as shown below in Tables 1 and 2. All experiments were done according to the art-recognized Anticonvulsant Screening Program of the NINDS at the University of Utah.
Duration of paw licking in the tables below is expressed in seconds.

C/C=C1\[C@H]2C=C(C)C[C@]1(N)c1ccc(=O)[nH]c1C2 [Huperzine A]
adverse effects in patients (patients): adverse effects were noted infrequently | behavioral impairment at anticonvulsant doses (rats): marked motor impairment | toxicity (rats; 1 mg/kg oral): no toxicity | SCMET N/F (mice showing an effect / mice tested) ([1]; 1 mg/kg i.p., SOL, 0.5 h): 3/5 (MJ)^1 | SCMET N/F (mice showing an effect / mice tested) ([1]; 3 mg/kg i.p., SUS, 0.5 h): 1/1 (MJ) | SCMET N/F (mice showing an effect / mice tested) ([1]; 10 mg/kg i.p., SUS, 4.0 h): 1/1 (MJ) | ED50 (6 Hz seizures; 6 HZ, ICV, 32 mA, 0.5 h): 0.21 pmol/5 microliter injection volume | N/F (animals active over number tested) (6 Hz seizures; ICV, 32 mA, 0.5 h, dose 0.01 (pmol/5 microliter; head prints mg/kg)): 3/8 | N/F (animals active over number tested) (6 Hz seizures; ICV, 32 mA, 0.5 h, dose 1 (pmol/5 microliter; head prints mg/kg)): 5/8 | N/F (animals active over number tested) (6 Hz seizures; ICV, 32 mA, 0.5 h, dose 10 (pmol/5 microliter; head prints mg/kg)): 6/8 | N/F (animals active over number tested) (6 Hz seizures; ICV, 32 mA, 0.5 h, dose 100 (pmol/5 microliter; head prints mg/kg)): 8/8 | N/F (animals active over number tested) (6 Hz seizures; ICV, 32 mA, 0.5 h, dose 1000 (pmol/5 microliter; head prints mg/kg)): 4/4 | Time to Peak Effect N/F (6 Hz seizures; ICV, 32 mA, dose 10 (pmol/5 microliter), 0.25 h): 2/4 | Time to Peak Effect N/F (6 Hz seizures; ICV, 32 mA, dose 10 (pmol/5 microliter), 0.5 h): 3/4 | Time to Peak Effect N/F (6 Hz seizures; ICV, 32 mA, dose 100 (pmol/5 microliter), 0.25 h): 4/4 | Time to Peak Effect N/F (6 Hz seizures; ICV, 32 mA, dose 100 (pmol/5 microliter), 0.5 h): 3/4 | Time to Peak Effect N/F (6 Hz seizures; ICV, 32 mA, dose 100 (pmol/5 microliter), 1.0 h): 1/4 | ICV ED50 dose (6 Hz seizures; mouse 6-hz model, ICV): 52 pgrams | maximum concentration in the cerebral ventricles after the ICV ED50 dose (6 Hz seizures; mouse 6-hz model, ICV ED50 dose, 40 μL): approximately 1.3 pgram/μL | Area Under the Curve, % of Control ([2]; 0.5 mg/kg i.p., Acute phase): 2.8% | Area Under the Curve, % of Control ([2]; 0.5 mg/kg i.p., Inflammatory phase): 0.0% | inhibition of phase 1 (acute) pain response ([2]; 1 mg/kg i.p.): complete inhibition | inhibition of phase 2 (inflammatory) pain response ([2]; 1 mg/kg i.p.): complete inhibition | Area Under the Curve, % of Control ([2]; 1 mg/kg i.p., Acute phase): 0.0% | Area Under the Curve, % of Control ([2]; 1 mg/kg i.p., Inflammatory phase): 0.0%
